This note sets out measurements from patent publication US8846928B2 (Portola Pharmaceuticals, Inc., priority 2010, dated 2014).

Molecules are shown by their SMILES.

This test addresses T1, full length active recombinant SYK enzyme (Homo sapiens, UniProt P43405).
T1 construct: full length active recombinant SYK enzyme (Millipore, Calif.); purchased Millipore
In words: Inhibition of Syk tyrosine phosphorylation activity (LANCE TR-FRET kinase assay). It counts as biochemical. Background: TR-FRET usually uses a lanthanide donor and a delayed reading to cut background.

What is called IC50 is the point on the concentration scale where inhibition reaches its midpoint.

For `Cn1cnc2cc(Nc3nc(N[C@@H]4CCCC[C@@H]4N)c(F)cc3C(N)=O)ccc21` [Example 153, 6-((1R,2S)-2-aminocyclohexylamino)-5-fluoro-2-(1-methyl-1H-benzo[d]imidazol-5-ylamino)nicotinamide], the IC50 was 1 to 10 nM.

As to `NC(=O)c1cc(F)c(N[C@@H]2CCCC[C@@H]2N)nc1Nc1cncc(-n2nccn2)c1` [Example 154, 2-(5-(2H-1,2,3-triazol-2-yl)pyridin-3-ylamino)-6-((1R,2S)-2-aminocyclohexylamino)-5-fluoronicotinamide], the IC50 is 1 to 10 nM.

For `NC(=O)c1cc(F)c(N[C@@H]2CCCC[C@@H]2N)nc1Nc1cncc(-n2cccn2)c1` [Example 155, 2-(5-(1H-pyrazol-1-yl)pyridin-3-ylamino)-6-((1R,2S)-2-aminocyclohexylamino)-5-fluoronicotinamide], the IC50 was > 1000 nM.

As for `NC(=O)c1cc(F)c(N[C@@H]2CCCC[C@@H]2N)nc1Nc1cncc(-c2ncccn2)c1` [Example 156, 6-((1R,2S)-2-aminocyclohexylamino)-5-fluoro-2-(5-(pyrimidin-2-yl)pyridin-3-ylamino)nicotinamide], the IC50 lay in the range of 1 to 10 nM.

Take `NC(=O)c1ccc(N[C@@H]2CCCC[C@@H]2N)nc1Nc1cncc(-c2ncccn2)c1` [Example 157, 6-((1R,2S)-2-aminocyclohexylamino)-2-(5-(pyrimidin-2-yl)pyridin-3-ylamino)nicotinamide]: the IC50 was 10 to 100 nM.

Turning to `NC(=O)c1ccc(N[C@@H]2CCCC[C@@H]2N)nc1Nc1cncc(-n2nccn2)c1` [Example 158], the IC50 was 1 to 10 nM.

For the compound `NC(=O)c1ccc(N[C@@H]2CCCC[C@@H]2N)nc1Nc1cncc(-n2cccn2)c1` [Example 159, 2-(5-(1H-pyrazol-1-yl)pyridin-3-ylamino)-6-((1R,2S)-2-aminocyclohexylamino)nicotinamide], the IC50 was 1 to 10 nM.

As for `NC(=O)c1cc(F)c(N[C@@H]2CCCC[C@@H]2N)nc1Nc1cncc(-n2ccnc2)c1` [Example 160], the IC50 lay in the range of 10 to 100 nM.

Turning to `NC(=O)c1ccc(N[C@@H]2CCCC[C@@H]2N)nc1Nc1cncc(-n2ccnc2)c1` [Example 161, 2-(5-(1H-imidazol-1-yl)pyridin-3-ylamino)-6-((1R,2S)-2-aminocyclohexylamino)nicotinamide], the IC50 is 1 to 10 nM.

In the case of `NC(=O)c1cc(F)c(N[C@@H]2CCCC[C@@H]2N)nc1Nc1cncc(-c2nccs2)c1` [Example 162, 6-((1R,2S)-2-aminocyclohexylamino)-5-fluoro-2-(5-(thiazol-2-yl)pyridin-3-ylamino)nicotinamide], the IC50 was in the range of 1 to 10 nM.

On to `NC(=O)c1ccc(N[C@@H]2CCCC[C@@H]2N)nc1Nc1cncc(-c2nccs2)c1` [Example 163], for which the IC50 lay in the range of 1 to 10 nM.

In the case of `COc1cncc(Nc2nc(N[C@@H]3CCCC[C@@H]3N)ccc2C(N)=O)c1` [Example 164], the IC50 was 1 to 10 nM.

Consider `NC(=O)c1ccc(N[C@@H]2CCCC[C@@H]2N)nc1Nc1cnc2ncccc2c1` [Example 165], for which the IC50 was in the range of 1 to 10 nM.

With `COc1ncc(Nc2nc(N[C@@H]3CCCC[C@@H]3N)c(F)cc2C(N)=O)cn1` [Example 166, 6-((1R,2S)-2-aminocyclohexylamino)-5-fluoro-2-(2-methoxypyrimidin-5-ylamino)nicotinamide], the IC50 fell in the range of 100 to 1000 nM.

With `NC(=O)c1cc(F)c(N[C@@H]2CCCC[C@@H]2N)nc1Nc1cccnc1` [Example 174, 6-((1R,2S)-2-aminocyclohexylamino)-5-fluoro-2-(pyridin-3-ylamino)nicotinamide], the IC50 was in the range of 1 to 10 nM.

As to `NC(=O)c1cc(F)c(N[C@@H]2CCCC[C@@H]2N)nc1Nc1ccncc1` [Example 175], the IC50 is 10 to 100 nM.

Consider `NC(=O)c1cc(F)c(N[C@@H]2CCCC[C@@H]2N)nc1Nc1ccc(C(F)(F)F)nc1` [Example 176, 6-((1R,2S)-2-aminocyclohexylamino)-5-fluoro-2-(6-(trifluoromethyl)pyridin-3-ylamino)nicotinamide], for which the IC50 was 10 to 100 nM.

For `NC(=O)c1cc(F)c(N[C@@H]2CCCC[C@@H]2N)nc1Nc1cncs1` [Example 177, 6-((1R,2S)-2-aminocyclohexylamino)-5-fluoro-2-(thiazol-5-ylamino)nicotinamide], the IC50 is > 1000 nM.

Regarding `NC(=O)c1cc(F)c(N[C@@H]2CCCC[C@@H]2N)nc1Nc1cnsc1` [Example 178, 6-((1R,2S)-2-aminocyclohexylamino)-5-fluoro-2-(isothiazol-4-ylamino)nicotinamide], the IC50 was in the range of 10 to 100 nM.

With `NC(=O)c1ccc(N[C@@H]2CCCC[C@@H]2N)nc1Nc1cncc(F)c1` [Example 179], the IC50 lay within 1 to 10 nM.

Regarding `NC(=O)c1ccc(N[C@@H]2CCCC[C@@H]2N)nc1Nc1cccnc1` [Example 180, 6-((1R,2S)-2-aminocyclohexylamino)-2-(pyridin-3-ylamino)nicotinamide], the IC50 is 1 to 10 nM.

With `NC(=O)c1ccc(N[C@@H]2CCCC[C@@H]2N)nc1Nc1ccncc1` [Example 181, 6-((1R,2S)-2-aminocyclohexylamino)-2-(pyridin-4-ylamino)nicotinamide], the IC50 lay in the range of 1 to 10 nM.

Turning to `Cc1cc(Nc2nc(N[C@@H]3CCCC[C@@H]3N)ccc2C(N)=O)sn1` [Example 182, 6-((1R,2S)-2-aminocyclohexylamino)-2-(3-methylisothiazol-5-ylamino)nicotinamide], the IC50 lay in the range of 1 to 10 nM.

`NC(=O)c1cc(F)c(N[C@@H]2CCCC[C@@H]2N)nc1Nc1cnc2cccnc2c1` [Example 183, 2-(1,5-naphthyridin-3-ylamino)-6-((1R,2S)-2-aminocyclohexylamino)-5-fluoronicotinamide]: the IC50 was 1 to 10 nM.

For the compound `NC(=O)c1ccc(N[C@@H]2CCCC[C@@H]2N)nc1Nc1cnc2cccnc2c1` [Example 184], the IC50 is 1 to 10 nM.

As to `NC(=O)c1ccc(N[C@@H]2CCCC[C@@H]2N)nc1Nc1cnc2ccccc2c1` [Example 185, 6-((1R,2S)-2-aminocyclohexylamino)-2-(quinolin-3-ylamino)nicotinamide], the IC50 was 1 to 10 nM.

For `NC(=O)c1ccc(N[C@@H]2CCCC[C@@H]2N)nc1Nc1ccc2cccnc2c1` [Example 186, 6-((1R,2S)-2-aminocyclohexylamino)-2-(quinolin-7-ylamino)nicotinamide], the IC50 lay within 1 to 10 nM.

Regarding `NC(=O)c1cc(F)c(N[C@@H]2CCCC[C@@H]2N)nc1Nc1cccc(-n2cccc2)c1` [Example 187, 2-(3-(1H-pyrrol-1-yl)phenylamino)-6-((1R,2S)-2-aminocyclohexylamino)-5-fluoronicotinamide], the IC50 was in the range of 1 to 10 nM.

As to `NC(=O)c1cc(F)c(N[C@@H]2CCCC[C@@H]2N)nc1Nc1ccc(-n2cccc2)cc1` [Example 188, 2-(4-(1H-pyrrol-1-yl)phenylamino)-6-((1R,2S)-2-aminocyclohexylamino)-5-fluoronicotinamide], the IC50 is 1 to 10 nM.

With `NC(=O)c1cc(F)c(N[C@@H]2CCCC[C@@H]2N)nc1Nc1cccc(-c2nccs2)c1` [Example 189, 6-((1R,2S)-2-aminocyclohexylamino)-5-fluoro-2-(3-(thiazol-2-yl)phenylamino)nicotinamide], the IC50 lay in the range of 1 to 10 nM.

For the compound `NC(=O)c1cc(F)c(N[C@@H]2CCCC[C@@H]2N)nc1Nc1ccnc(-n2cccn2)c1` [Example 190, 2-(2-(1H-pyrazol-1-yl)pyridin-4-ylamino)-6-((1R,2S)-2-aminocyclohexylamino)-5-fluoronicotinamide], the IC50 was in the range of 10 to 100 nM.

Consider `NC(=O)c1ccc(N[C@@H]2CCCC[C@@H]2N)nc1Nc1cccc(-n2cccn2)c1` [Example 192, 2-(3-(1H-pyrazol-1-yl)phenylamino)-6-((1R,2S)-2-aminocyclohexylamino)nicotinamide], for which the IC50 lay within 1 to 10 nM.

In the case of `NC(=O)c1cc(F)c(N[C@@H](C(N)=O)C2CC2)nc1Nc1cnc2ccccc2c1` [Example 196, (R)-6-(2-amino-1-cyclopropyl-2-oxoethylamino)-5-fluoro-2-(quinolin-3-ylamino)nicotinamide], the IC50 fell in the range of 10 to 100 nM.

Take `Cc1cc(Nc2nc(N[C@@H](C(N)=O)C3CC3)c(F)cc2C(N)=O)sn1` [Example 198, (R)-6-(2-amino-1-cyclopropyl-2-oxoethylamino)-5-fluoro-2-(3-methylisothiazol-5-ylamino)nicotinamide]: the IC50 fell in the range of 10 to 100 nM.

Consider `CCC[C@@H](Nc1nc(Nc2cnc3ccccc3c2)c(C(N)=O)cc1F)C(N)=O` [Example 199, (R)-6-(1-amino-1-oxopentan-2-ylamino)-5-fluoro-2-(quinolin-3-ylamino)nicotinamide], for which the IC50 fell in the range of 1 to 10 nM.

On to `CCC[C@@H](Nc1nc(Nc2ccc3ncccc3c2)c(C(N)=O)cc1F)C(N)=O` [Example 200], for which the IC50 lay in the range of 10 to 100 nM.

For the compound `CCC[C@@H](Nc1nc(Nc2ccc3cccnc3c2)c(C(N)=O)cc1F)C(N)=O` [Example 201, (R)-6-(1-amino-1-oxopentan-2-ylamino)-5-fluoro-2-(quinolin-7-ylamino)nicotinamide], the IC50 lay within 100 to 1000 nM.

On to `CCC[C@@H](Nc1nc(Nc2cc(C)ns2)c(C(N)=O)cc1F)C(N)=O` [Example 202, (R)-6-(1-amino-1-oxopentan-2-ylamino)-5-fluoro-2-(3-methylisothiazol-5-ylamino)nicotinamide], for which the IC50 lay in the range of 10 to 100 nM.

As for `CC[C@@H](Nc1ccc(C(N)=O)c(Nc2cnc3ccccc3c2)n1)C(N)=O` [Example 203, (R)-6-(1-amino-1-oxobutan-2-ylamino)-2-(quinolin-3-ylamino)nicotinamide], the IC50 was in the range of 1 to 10 nM.

On to `CC[C@@H](Nc1ccc(C(N)=O)c(Nc2ccc3cccnc3c2)n1)C(N)=O` [Example 204, (R)-6-(1-amino-1-oxobutan-2-ylamino)-2-(quinolin-7-ylamino)nicotinamide], for which the IC50 was 10 to 100 nM.

For the compound `CC[C@@H](Nc1ccc(C(N)=O)c(Nc2ccc3ncccc3c2)n1)C(N)=O` [Example 205, (R)-6-(1-amino-1-oxobutan-2-ylamino)-2-(quinolin-6-ylamino)nicotinamide], the IC50 was in the range of 1 to 10 nM.
